# Data published in US6537783B1, “Prefunctionalized nucleotide and process for amplifying a sequence using a prefunctionalized nucleotide” (Bio Merieux, priority 1996, dated 2003).
# Tests used:
# [1] = test system: Mycobacterium tuberculosis 16S RNA; test: Incorporation yield of the nucleotide in the TMA amplification products (HPLC of digested amplicons; fluorescence for fluorescein-UTP); format: biochemical; conditions: 10^6 copies target, total 4 mM
# Procedure: The incorporation of the prefunctionalized nucleotides 27a, 27b and 32, and, by way of comparison, Boerhinger's labeled nucleotide ref. 1 427 857, into the products of the TMA amplification reaction is tested using Gen-Probe amplified™ MTD2 (amplified Mycobacterium tuberculosis direct test) kits. This reaction amplifies a 136-base fragment of the mycobacterial 16S RNA. It uses four enzymic activities (DNA-dependent RNA polymerase, DNA-dependent DNA polymerase, RNA-dependent DNA polymerase and ribonuclease H) and two enzymes, T7 RNA polymerase and AMV reverse transcriptase. By means of recurrent reactions involving steps of transcription, reverse transcription and digestion of the RNA contained in the DNA:RNA double strands, which steps resemble an RNA virus replication cycle, this reaction enables a nucleic acid sequence which is recognized by two primers (a simple primer and a primer containing the T7 RNA polymerase promoter) to be amplified specifically. The amplification factor is very substantial ([…]) and the sensitivity is very good (from 1 to 10 copies). 90% of the resulting products consist of single-stranded RNAs and 10% consist of double-stranded DNAs.
# Amplification reactions are carried out using 10^6 copies of Mycobacterium tuberculosis 16S RNA. This target RNA is previously obtained and quantified by means of the following method: the 16S RNA gene is cloned into a plasmid under the control of a promoter. The 16S RNA is then obtained by in vitro transcription. This RNA is purified by extraction with phenol/chloroform and filtration through microcon 30™ (Amicon). It is assayed by its absorption at 260 nm.
# The standard TMA reactions contain 4 mM of each of the natural rNTPs (ATP, CTP, GTP and UTP). For the purpose of incorporating the prefunctionalized nucleotides into the amplification products, the reaction is performed while including one of these modified nucleotides in the reaction buffer. The reaction is studied in the presence of different ratios between the concentrations of the modified nucleotide and the natural nucleotide, while at the same time ensuring that the total concentration of each nucleotide of the same series, whether modified or natural, is 4 mM. The ratios studied are 0%, 10%, 30%, 50% and 70% (except in the case of the fluorescein-UTP, which it was not possible to test at 70%). A negative control is carried out, with this negative control consisting of a reaction which comprises all the reagents, including the highest ratio of modified nucleotides employed (70 or 50%), apart from the enzymes (which are replaced by the buffer used for redissolving the lyophilized enzymes).
# The ratio between the incorporated prefunctionalized nucleotide and the analogous natural nucleotide is determined in order to assess the prefunctionalization of the amplicons obtained in the presence of the prefunctionalized nucleotides 27a (CTP-(N4)-C6O2—NH2) and 27b (CTP-(N4)-C4—NH2) and, by way of comparison, in the presence of the labeled nucleotide fluorescein-12-UTP (Boerhinger, ref. 1 427 857).
# The amplification products obtained on carrying out Example 22 are separated from the nucleotides which are in excess in the reaction by means of filtration through Microcon 30™ (from Amicon) and dissolved in 50 μl of water. In the case of the amplification in the presence of fluorescein-12-UTP, the purification is carried out on sephadex G50 (the fluorescein is absorbed on Microcon).
# The absorption of the amplification products at 260 nm is then determined (the control without enzyme should have a very low concentration).
# In the case of the amplification reactions which include the prefunctionalized nucleotides (and their controls), a step of digesting the nucleic acids down to the nucleoside stage is then carried out:
# 5 10^14 amplification product copies (approximately 35 μg) are diluted in a final volume of 86 μl of water (in the case of the control without enzyme, a volume is used which is equal to the largest sample […] volume). […]
# [2] = test system: Mycobacterium tuberculosis 16S RNA; test: Impact of incorporation of prefunctionalized nucleotides on TMA sensitivity (ELOSA, electrophoresis, Northern blotting); format: biochemical; conditions: for sensitivity of the TMA reaction: 10,000 to 10 target copies, ratios 100% to 0%, at a determinable concentration of prefunctionalized nucleotide
# From the text: In the abovementioned FIGS. 4 and 5, the number of copies of the target per reaction are given on the x axis and the number of amplicons obtained per microliter of reaction (final reaction volume=100 microliters) are given on the y axis. Specific symbols, for example ▪, □, ▴, ◯, ●, and a percentage, are assigned to the curves in FIGS. 4 and 5. This percentage corresponds to the percentage of the prefunctionalized nucleotide(s) as compared with the natural nucleotides in the TMA amplification reaction. FIGS. 4 and 5 show, respectively, the results of the semiquantification, by means of the ELOSA technique (described in Patent Application PCT WO 92/19812), of the number of amplicons produced from a target range of Mycobacterium tuberculosis 16S RNA in the presence of different ratios of 27a and 27b nucleotides as compared with their respective natural nucleotides.
# In order to study the sensitivity of TMA which includes incorporation of prefunctionalized nucleotides, the TMA was performed using decreasing quantities of the target (Mycobacterium tuberculosis 16S RNA, described in Example 22) (10,000, 1000, 100, 10 and 0 copies) in the presence of different ratios between the prefunctionalized nucleotide and its natural analog (100%, 70%, 50%, 30%, 10% and 0%). The same prefunctionalized nucleotides are tested, i.e. 27a (CTP-(N4)-C6O2—NH2) and 27b (CTP-(N4)-C4—NH2).
# The reaction products are studied, inter alia, by the method described in Example 22.
# The reaction products are also analyzed in a semi-quantitative manner by means of ELOSA (PCT WO 92/19812) and comparison of the intensity of the signals with those of standard ranges.
# The reactions which are performed in the presence of (a) prefunctionalized nucleotide(s) are analyzed by electrophoresis and staining, Northern blotting and ELOSA.
# [3] = [Prefunctionalized nucl.]/[natural nucl.] in reaction 30%
# [4] = [Prefunctionalized nucl.]/[natural nucl.] in reaction 50%
# [5] = [Prefunctionalized nucl.]/[natural nucl.] in reaction 70%
# [6] = [Prefunctionalized nucl.]/[natural nucl.] in reaction 10%
Substance,"incorporation yield: incorporated modified nucleotide / natural nucleotide in TMA amplification products [1, 3]","incorporation yield: incorporated modified nucleotide / natural nucleotide in TMA amplification products [1, 4]","incorporation yield: incorporated modified nucleotide / natural nucleotide in TMA amplification products [1, 5]",sensitivity of the TMA reaction [2],"ability to replace the natural nucleotide in TMA ([2]; FIG. 5, ELOSA)","incorporation yield: incorporated modified nucleotide / natural nucleotide in TMA amplification products [1, 6]"
CTP-(N4)-C4—NH2 [nucleotide 27b],1/48,1/15,1/6,not significantly affected,able to replace the natural nucleotide,
fluorescein-12-UTP [reference compound],1/45,1/30,,,,1/200
CTP-(N4)-C6O2—NH2 [nucleotide 27a],1/9,1/5,1/3,not significantly affected,,1/33
